In patent US20100317583A1, “TREATMENT OF MELANOMA WITH ALPHA THYMOSIN PEPTIDES IN COMBINATION WITH AN ANTINEOPLASTIC HEAT SHOCK APOPTOSIS ACTIVATOR (HSAA)” (SciClone Pharmaceuticals, Inc., priority 2007, published 2010):
Where “and” joins values, the source holds several entries; their conditions need not be identical. Equal entries are not always repeated. No end group written: not given here.

System: murine B16 melanoma cells
Test: Anti-tumor efficacy (tumor size, tumor volume, tumor weight) in C57BL/6 mice bearing subcutaneous B16 melanoma
Type: in vivo
Conditions: for Tumor weights / PI (TW), percent inhibition of tumor weight vs vehicle: Day 17
Protocol: In this study, the anti-tumor effect of the combined treatment of thymosin alpha-1 (TA-1), Paclitaxel (Pac) and Elesclomol (Ele) was evaluated in C57BL/6 mice bearing B16 melanoma cells. The toxic effects of the dosing regimens were also monitored. A total of 60 mice were implanted subcutaneously with murine B16 cells, followed by treatment with TA-1 or Pac/Ele alone or in combination for 14 consecutive days. TA-1 was given daily via s.c., while Pac and Ele were co-i.v. administered on Day 1, 7 and 13. In total, 6 groups were used: Group 1: vehicle; Group 2: TA-1 6 mg/kg; Group 3: Pac 10 mg/kg+Ele 10 mg/kg; Group 4: Pac 30 mg/kg+Ele 30 mg/kg; Group 5: TA-1 6 mg/kg+Pac 10 mg/kg+Ele 10 mg/kg; and Group 6: TA-1 6 mg/kg+Pac 30 mg/kg+Ele 30 mg/kg. Tumor volume and body weight were measured every three days, and tumor weights were measured on Day 17 at the end of the study.
Murine B16 melanoma cells were thawed from the stock of Cell Culture Center, Institute of Basic Medical Sciences, Peking Union Medical College and Chinese Academy of Medical Sciences (PUMC & CAMS, Beijing, P. R. China). The tumor cells were adapted in C57BL/6 mice before use in the experiment (Refer to Section 4.3.1 for details on cell adaptation).
Using aseptic tissue culture procedures, one vial of B16 melanoma cells was removed from the liquid nitrogen stock, and placed into a 37° C. water bath. Gentle swirling was conducted until the content of the vial was thawed. Once thawed, the cells were immediately centrifuged with a TD5A-WS centrifuge at 1000 rpm, 20-25° C., 5 min. After centrifugation, the cells were suspended in […] normal saline (NS) and subcutaneously injected into 10 mice (0.1 mL/mouse, about 1×10^6 cells). After 7-10 days, when the tumor diameter was approximately 1 cm, the animals were euthanized with CO2 overdose and the tumors excised. The procedure was repeated with 20 mice to generate a sufficient number of B16 melanoma cells with adequate transplantability.
On the day of tumor implantation, approximately 1×10^6 cells in 0.1 mL were subcutaneously injected on the right axillary area of each mouse. The day of tumor implantation was defined as Day 0.
On Day 1, the animals were randomly assigned into different weight-matched groups, and dosing was started using the regimen according to Table 2. Briefly, TA-1 was administered once daily via subcutaneous (s.c.) injection for 14 consecutive days at a site different from that of tumor cell implantation, while Pac and Ele was administered on Days 1, 7, and 13 via an intravenous (i.v.) injection.
From Day 1 to Day 15, mortality and moribundity were checked twice daily, the body weights were recorded once every 3 days, and tumors were measured using a caliper once every 3 days. At the end of the study (Day 17), the animals were euthanized by CO2 asphyxiation, and the tumors were excised and weighed.
Based on the tumor size, the tumor volume (TV) was calculated with the formula: [TV=(Length×Width×Width)/2]. And the percent inhibition (PI) of TV (PITV) was calculated according to the equation below:
PITV(%)=(TV vehicle−TVdrug treated)/TV vehicle×100
The anti-tumor effect of the test article was further evaluated with tumor weight (TW) measured on day of necropsy (Day 17). The PI of TW was calculated using the equation below:
PITW(%)=100×(TW vehicle−TW drug treated)/TW vehicle
The calculations of PITV and PITW were performed using an Excel spreadsheet and reviewed by the Study Director and Study Monitor.
Inter-group comparison was performed in terms of tumor volume, tumor weight and body weight, using a student's t test. P values of less than 0.05 were considered to be statistically significant.

[1] = Day 3, individual animals F1-F5, M1-M5, low-dose arms: TA-1 6 mg/kg, Pac 10 + Ele 10 mg/kg
[2] = Day 3, low-dose arms: TA-1 6 mg/kg s.c. daily, Pac 10 + Ele 10 mg/kg co-i.v. Days 1, 7, 13
[3] = Day 6, individual animals F1-F5, M1-M5, low-dose arms: TA-1 6 mg/kg, Pac 10 + Ele 10 mg/kg
[4] = Day 6, low-dose arms: TA-1 6 mg/kg s.c. daily, Pac 10 + Ele 10 mg/kg co-i.v. Days 1, 7, 13
[5] = Day 9, individual animals F1-F5, M1-M5, low-dose arms: TA-1 6 mg/kg, Pac 10 + Ele 10 mg/kg
[6] = Day 9, low-dose arms: TA-1 6 mg/kg s.c. daily, Pac 10 + Ele 10 mg/kg co-i.v. Days 1, 7, 13
[7] = Day 12, low-dose arms: TA-1 6 mg/kg s.c. daily, Pac 10 + Ele 10 mg/kg co-i.v. Days 1, 7, 13
[8] = Day 15, low-dose arms: TA-1 6 mg/kg s.c. daily, Pac 10 + Ele 10 mg/kg co-i.v. Days 1, 7, 13

thymosin alpha 1 (SDAAVDTSSEITTKDLKEKKEVVEEAEN; ends and bridges not checked; UniProt P06454 2-29, looked up) [TA-1, 28 amino acid peptide with a molecular weight of 3108; immunomodulator]
Tumor measurements, L (length) [1]: 0.1 cm (2×) and 0.2 cm (2×) | Tumor measurements, W (width) [1]: 0.1 cm (2×) and 0.2 cm (2×) | Tumor volumes (Day 3, individual animals F1-F5, M1-M5, low-dose arms: TA-1 6 mg/kg, Pac 10 + Ele 10 mg/kg, female mice): 0 cm^3 (4×) and 0.0005 cm^3 | Tumor volumes (Day 3, individual animals F1-F5, M1-M5, low-dose arms: TA-1 6 mg/kg, Pac 10 + Ele 10 mg/kg, male mice): 0 cm^3 (2×) and 0.004 cm^3 (2×) and 0.0005 cm^3 | PI (TV), percent inhibition of tumor volume vs vehicle [2]: −50.00% | Tumor Volume (Mean ± SD) [2]: 0.0009 ± 0.0016 cm^3 | Tumor measurements, L (length) [3]: 0.3 cm and 0.2 cm (2×) and 0.1 cm | Tumor measurements, W (width) [3]: 0.3 cm and 0.2 cm (2×) and 0.1 cm | Tumor volumes (Day 6, individual animals F1-F5, M1-M5, low-dose arms: TA-1 6 mg/kg, Pac 10 + Ele 10 mg/kg, female mice): 0 cm^3 (4×) and 0.0135 cm^3 | Tumor volumes (Day 6, individual animals F1-F5, M1-M5, low-dose arms: TA-1 6 mg/kg, Pac 10 + Ele 10 mg/kg, male mice): 0 cm^3 (2×) and 0.004 cm^3 (2×) and 0.0005 cm^3 | PI (TV), percent inhibition of tumor volume vs vehicle [4]: 58.49% | Tumor Volume (Mean ± SD) [4]: 0.0022 ± 0.0043 cm^3 | Tumor volumes (Day 9, animal F1): 0.0005 cm^3 | Tumor volumes (Day 9, animal F2): 0 cm^3 | Tumor volumes (Day 9, animal F3): 0 cm^3 | Tumor volumes (Day 9, animal F4): 0 cm^3 | Tumor volumes (Day 9, animal F5): 0.0135 cm^3 | Tumor volumes (Day 9, animal M1): 0.004 cm^3 | Tumor volumes (Day 9, animal M2): 0.004 cm^3 | Tumor volumes (Day 9, animal M3): 0.004 cm^3 | Tumor volumes (Day 9, animal M4): 0 cm^3 | Tumor volumes (Day 9, animal M5): 0 cm^3 | Tumor measurements, L (length) [5]: 0.3 cm and 0.2 cm (3×) and 0.1 cm | Tumor measurements, W (width) [5]: 0.3 cm and 0.2 cm (3×) and 0.1 cm | PI (TV), percent inhibition of tumor volume vs vehicle [6]: 88.26% | Tumor Volume (Mean ± SD) [6]: 0.0026 ± 0.0043 cm^3 | Tumor measurements L (Day 12, animal F1): 0.1 cm | Tumor measurements W (Day 12, animal F1): 0.1 cm | Tumor volumes (Day 12, animal F1): 0.0005 cm^3 | Tumor measurements L (Day 12, animal F2): 0.2 cm | Tumor measurements W (Day 12, animal F2): 0.2 cm | Tumor volumes (Day 12, animal F2): 0.004 cm^3 | Tumor measurements L (Day 12, animal F3): 0.2 cm | Tumor measurements W (Day 12, animal F3): 0.2 cm | Tumor volumes (Day 12, animal F3): 0.004 cm^3 | Tumor measurements L (Day 12, animal F4): 0.1 cm | Tumor measurements W (Day 12, animal F4): 0.1 cm | Tumor volumes (Day 12, animal F4): 0.0005 cm^3 | Tumor measurements L (Day 12, animal F5): 0.3 cm | Tumor measurements W (Day 12, animal F5): 0.3 cm | Tumor volumes (Day 12, animal F5): 0.0135 cm^3 | Tumor measurements L (Day 12, animal M1): 0.2 cm | Tumor measurements W (Day 12, animal M1): 0.2 cm | Tumor volumes (Day 12, animal M1): 0.004 cm^3 | Tumor measurements L (Day 12, animal M2): 0.2 cm | Tumor measurements W (Day 12, animal M2): 0.2 cm | Tumor volumes (Day 12, animal M2): 0.004 cm^3 | Tumor measurements L (Day 12, animal M3): 0.2 cm | Tumor measurements W (Day 12, animal M3): 0.2 cm | Tumor volumes (Day 12, animal M3): 0.004 cm^3 | Tumor measurements L (Day 12, animal M4): 0.2 cm | Tumor measurements W (Day 12, animal M4): 0.2 cm | Tumor volumes (Day 12, animal M4): 0.004 cm^3 | Tumor measurements L (Day 12, animal M5): 0.1 cm | Tumor measurements W (Day 12, animal M5): 0.1 cm | Tumor volumes (Day 12, animal M5): 0.0005 cm^3 | PI (TV), percent inhibition of tumor volume vs vehicle [7]: 96.28% | Tumor Volume (Mean ± SD) [7]: 0.0039 ± 0.0038 cm^3 | Tumor measurements L (Day 15, animal F1): 0.3 cm | Tumor measurements W (Day 15, animal F1): 0.3 cm | Tumor volumes (Day 15, animal F1): 0.0135 cm^3 | Tumor measurements L (Day 15, animal F2): 0.3 cm | Tumor measurements W (Day 15, animal F2): 0.3 cm | Tumor volumes (Day 15, animal F2): 0.0135 cm^3 | Tumor measurements L (Day 15, animal F3): 0.5 cm | Tumor measurements W (Day 15, animal F3): 0.5 cm | Tumor volumes (Day 15, animal F3): 0.0625 cm^3 | Tumor measurements L (Day 15, animal F4): 0.3 cm | Tumor measurements W (Day 15, animal F4): 0.3 cm | Tumor volumes (Day 15, animal F4): 0.0135 cm^3 | Tumor measurements L (Day 15, animal F5): 0.6 cm | Tumor measurements W (Day 15, animal F5): 0.6 cm | Tumor volumes (Day 15, animal F5): 0.108 cm^3 | Tumor measurements L (Day 15, animal M1): 0.5 cm | Tumor measurements W (Day 15, animal M1): 0.5 cm | Tumor volumes (Day 15, animal M1): 0.0625 cm^3 | Tumor measurements L (Day 15, animal M2): 0.4 cm | Tumor measurements W (Day 15, animal M2): 0.4 cm | Tumor volumes (Day 15, animal M2): 0.032 cm^3 | Tumor measurements L (Day 15, animal M3): 0.6 cm | Tumor measurements W (Day 15, animal M3): 0.6 cm | Tumor volumes (Day 15, animal M3): 0.108 cm^3 | Tumor measurements L (Day 15, animal M4): 0.5 cm | Tumor measurements W (Day 15, animal M4): 0.5 cm | Tumor volumes (Day 15, animal M4): 0.0625 cm^3 | Tumor measurements L (Day 15, animal M5): 0.5 cm | Tumor measurements W (Day 15, animal M5): 0.5 cm | Tumor volumes (Day 15, animal M5): 0.0625 cm^3 | PI (TV), percent inhibition of tumor volume vs vehicle [8]: 85.60% | Tumor Volume (Mean ± SD) [8]: 0.0539 ± 0.0358 cm^3 | Tumor Weight (Mean ± SD) (Day 17 (necropsy), low-dose arms: TA-1 6 mg/kg s.c. daily, Pac 10 + Ele 10 mg/kg co-i.v. Days 1, 7, 13): 0.88 ± 0.34 g | Tumor weights (animal F1): 0.64 g | Tumor weights (animal F2): 0.5 g | Tumor weights (animal F3): 1.2 g | Tumor weights (animal F4): 0.62 g | Tumor weights (animal F5): 1.45 g | Tumor weights (animal M1): 0.69 g | Tumor weights (animal M2): 0.56 g | Tumor weights (animal M3): 1.36 g | Tumor weights (animal M4): 0.92 g | Tumor weights (animal M5): 0.89 g | PI (TW), percent inhibition of tumor weight vs vehicle (low-dose arms: TA-1 6 mg/kg s.c. daily, Pac 10 + Ele 10 mg/kg co-i.v. Days 1, 7, 13): 55.67% | PI (TW), percent inhibition of tumor weight vs vehicle (low-dose arms: TA-1 6 mg/kg s.c. daily, Pac 10 + Ele 10 mg/kg co-i.v. Days 1, 7, 13, listed as Group 2): 55.67% | mean tumor volume reduced in comparison to that of the vehicle control group (throughout the course of the study, TA-1 6 mg/kg s.c. daily): more than 50%
